Where two headings read alike, the source gives them in different places. Positions of bridges follow the written chain, without caps; N, C: chain ends. Non-standard residues stand in square brackets, D forms with d. Residues, ends and D or L forms follow the SMILES beside them. Bta = N[C@@H](Cc1csc2ccccc12)C(=O)O; Hyp = O=C(O)[C@@H]1C[C@@H](O)CN1; d(hLeu) = CC(C)CC[C@@H](N)C(=O)O; dCha = N[C@H](CC1CCCCC1)C(=O)O; Orn = NCCC[C@H](N)C(=O)O
Key:
C5aR [1] = molecular target: T1, C5aR (Homo sapiens, UniProt P21730); details: PMN membranes, cited from earlier work
T1 construct: measurements with isolated membranes from polymorphonuclear neutrophilic granulocytes (PMN membranes); host or cells: isolated PMN membranes (endogenous receptor)
T1 sequence (P21730 1-350): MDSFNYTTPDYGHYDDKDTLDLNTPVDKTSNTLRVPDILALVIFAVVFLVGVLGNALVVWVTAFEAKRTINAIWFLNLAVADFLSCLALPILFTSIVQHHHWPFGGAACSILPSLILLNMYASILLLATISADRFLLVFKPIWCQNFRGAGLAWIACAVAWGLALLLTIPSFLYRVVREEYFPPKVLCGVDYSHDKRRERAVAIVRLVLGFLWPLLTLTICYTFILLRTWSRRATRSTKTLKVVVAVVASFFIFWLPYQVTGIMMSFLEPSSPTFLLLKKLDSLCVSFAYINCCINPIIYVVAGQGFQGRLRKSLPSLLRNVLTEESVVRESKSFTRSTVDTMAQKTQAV

[2] = Solubility determination for selected C5aR-antagonists; assay type: physicochemical; details: for Solubility in 20 mM HEPES pH 7.4 (% of 200 μM): 20 mM HEPES pH 7.4, 24 h at RT
Method: Solubility Determination for Selected C5aR-Antagonists
[…] The undissolved part was removed by centrifugation after 24 h. The UV-absorption of the supernatant was measured and compared to a reference solution of the compound in 60% MeOH.

human C5aR(CD88) [3] = molecular target: T2, human C5aR(CD88) (Homo sapiens, UniProt P21730); experiment: Determination of the IC50 value in an enzyme release assay (functional assay, antagonistic activity); assay type: cell-based; details: for inhibitory activity (in words): functional assay of example 11, noteworthy = IC50 less than 200 nM
T2 construct: expressed in transfected cells; host or cells: rat basophilic leukemia cells (RBL)
T2 sequence (P21730 1-350): T1 sequence (P21730 1-350)

human C5aR(CD88) [4] = molecular target: T2, human C5aR(CD88); experiment: Determination of EC50-values in an enzyme release assay (agonistic activity); assay type: cell-based; details: for agonistic activity (in words): cellular assay, up to a concentration of at least 1430 nM
Method: The assay procedure was described by Kohl (Kohl 1997 The Anaphylatoxins. In: Dodds, A. W., Sim, R. B. (Eds.), Complement: A Practical Approach. Oxford, pp. 135-163). Basophilic leukemia cells from rats (RBL), which express the human C5aR(CD88), were cultivated in DMEM with 10% fetal bovine serum, 100 U/ml penicillin, 100 μg/ml streptomycin and 2 mM glutamine (all components of the media from Biochrome, Berlin) to confluence at 37° C. and 10% CO2. The following specifications refer to single cell culture flask having a surface of 75 cm^2. Medium was decanted from cells. Cells were washed with 10 ml PBS (Dulbecco's PBS, Biochrome) and subsequently overlayed with 3 ml Cell Dissociation Solution (CDS, Sigma). Cells were incubated for 1 min at room temperature. Subsequently, CDS was removed and the cells were further incubated for 10-15 min at 37° C. for dissociation. In the assay, 20 μl of the solution containing the compound to be tested were used. This solution should not contain more than 2.8% DMSO. For the dilution process, the compounds were diluted in ⅓ or ½ steps. To 20 μl compound solution 75 μl of the RBL-cells were added, which were treated as follows: after dissociation cells were detached and warmed at 37° C. in 10 ml HAG-CM (20 mM HEPES; 125 mM NaCl, 5 mM KCl, 1 mM CaCl2, 1 mM MgCl2, 0,5 mM Glucose, 0,25% BSA. HEPES-preparation: 2.3 g/l HEPES-salt +2.66 g/l HEPES acid). Cells were counted and centrifuged (200×g, 10 min). The cell pellet was resuspended in preheated HAG-CM (i.e. Hepes-buffer NaCl-glucose-solution with calcium and magnesium), and the cell density was adjusted to 2×10^6 cells/ml. The cells were incubated at 37° C. for 5 min. Per ml cell suspension 27 μl of a cytochalasin B-solution were added (100 μg/ml in DMSO, Sigma). The cells were incubated for further 3 min at 37° C. 75 μl of the cell suspension were added to 20 μl compound solution leading to a volume of 95 μl per well. After incubation of the cells for 10 min at 37° C. 10 μl hrC5a (10.5 nM in HAG-CM, Sigma) per well were added. The cells were incubated for additional 5 min at 37° C. The mtp was then transferred to ice and centrifuged for 3 min at 4° C. with 1200×g. 75 μl of the supernatant were added to 100 μl substrate-solution (2.7 mg/ml p-nitrophenyl-N-acetyl-β-D-glucosaminide (Sigma) in 42.5 mM Na-acetate pH 4.5). The mtp was incubated for further 60 min at 37° C. 75 μl 0.4 M glycine pH 10.4 were added per well. The mtp was transferred into a reader and the absorption at 405 nm was measured. IC50-values were obtained following the equation; y=((A-D)/(1+(x/C)^B))+D.
Determination of EC50-Values in an Enzyme Release Assay
The determination of EC50-values was performed according to the procedure given in example II, with the exception that 30 μl of the test compound need to be mixed with 75 μl of the cell suspension mentioned in example 11. Neither preincubation nor addition of C5a for stimulation of enzyme release is needed.

C5aR [5] = molecular target: T1, C5aR; details: compound numbers of WO 03/033528; read-out: IC50 as a measure for affinity, WO 03/033528; cited from earlier work
C5aR [6] = molecular target: T1, C5aR; details: compound numbers of WO 03/033528; read-out: antagonistic activity, WO 03/033528; cited from earlier work
[7] = Measurement of the AB-permeability in a TC-7 based assay-system; assay type: in vitro ADME; details: human
Method: Measurement of the AB-Permeability in a TC-7 Based Assay-System The screening compounds are diluted to a 50 μM solution in HBSS-MES (5 mM, pH 6.5) from 10 mM stock solution in 100% DMSO. ^14C-mannitol (approx. 4 μM) is added to the sample. The solution is centrifuged and the supernatant is added to the apical side of the TC-7 cell culture (passage 15, in 24 well transwell plate) to a final DMSO-concentration of 1%. HBSS-HEPES (5 mM, pH 7.4) is placed at the basolateral side. The cells were incubated for 120 min at 37° C.

human PMNs = details: cellular myeloperoxidase release assay with human PMNs; read-out: IC50 (antagonistic activity), WO 99/00406; cited from earlier work
BALB/c mice = experiment: Model of immune complex mediated peritonitis (reverse passive Arthus reaction); assay type: in vivo; details: 1 mg/kg i.v. 15 min before Arthus reaction, lavage after 6 h, FIG. 1
Text: Efficacy of compound 149 in a model of immune complex mediated peritonitis
Immune complex mediated peritonitis resembles the pathological conditions of immune complex related diseases like vasculitis, nephritis, arthritis, and farmer's disease. The associated animal model was described by Heller et al. (1999 Journal of Immunology 163: 985-994) and takes advantage of the pro-inflammatory effects of immune complexes formed after i.v. administration of the antigen and i.p. administration of the antibody.
BALB/c mice (6-8 weeks old) were treated i.v. with compound 149 (1 mg/kg bodyweight in 200 μl vehicle) 15 min before the initiation of the reverse passive Arthus reaction. Arthus reaction was induced through the administration of OVA (20 mg/kg i.v. in 200 μl PBS) and polyclonal anti-OVA Ab (rabbit; 800 μg/Maus i.p). After 6 h a peritoenal lavage with 2 ml PBS 0.1% BSA was done. The collected PE-cells were stained with DIFF-Quick. At least 20 visual fields (100× magnification) were analyzed for the presence of neutrophils.

Wistar rats = experiment: Model of C5a induced neutropenia; assay type: in vivo; details: i.v. infusion 10 min before 2 μg/kg hr C5a i.v., FIG. 2
Text: Efficacy of compound 149 in a model of C5a induced neutropenia
C5a induced neutropenia is a model for shock induced diseases (e.g. septic shock), where the systemic role of C5a (neutropenia, blood pressure decrease) plays an important role. The reason for the decrease of the neutrophils in the circulation is their binding to the vessel walls due to the C5a stimulus. These processes of neutrophil recruitment are playing an important role in many other diseases like reperfusion injury. This model was also described by Short et al. (1999 British Journal of Pharmacology 125: 551-554).
Female Wistar rats were treated i.p. with ketamine (80 mg/kg) and xylazine (12 mg/kg). A catheter was introduced in the jugular vein and the animals were subjected to the following procedure:
1. Rats were treated with vehicle or compounds according to the invention like compound 149 via i.v. infusion. A blood sample was taken one minute before compound treatment. 2. 10 min after compound infusion rats were treated with 2 μg/kg hr C5a i.v. (2 μg/kg over 1 min). […]
White blood cell count was measured with a haematology-cell-counter. […]
The differential cell count was determined as the sum of neutrophils, eosinophils, basophils, lymphocytes and monocytes of 100 cells. Then the percentage of the neutrophils in relation to all white blood cells was calculated.

[8] = examples of WO 92/12168, read-out: IC50 (binding to C5aR), WO 92/12168
[9] = antagonistic activity, IC50 group in enzyme release assay, RBL cells expressing human C5aR(CD88), read-out: activity (group)
[10] = examples of WO 90/09162, read-out: IC50 (binding), WO 90/09162

For “(N-Methyl)Phe-Lys-Pro-cha-Phe-Phenylbutanoyl”, the IC50 (C5aR [1]; [8]) is listed as 2600 nM.

In the case of `CC(=O)N[C@@H](Cc1ccccc1)C(=O)N[C@H]1CCCNC(=O)[C@H](Cc2ccccc2)NC(=O)[C@H](Cc2c[nH]c3ccccc23)NC(=O)[C@@H](CC2CCCCC2)NC(=O)[C@@H]2CCCN2C1=O` [Compound 1, Ac-Phe-[Orn-Pro-cha-Trp-Phe]] (Ac-F[Orn]P[dCha]WF; lactam 2-C), the “Solubility in 20 mM HEPES pH 7.4 (% of 200 μM)” value [2] is reported as 8 % of 200 μM, the “solubility in aqueous HEPES buffer (pH 7.4)” value [2] is reported as 8% and the IC50 (human C5aR(CD88) [3]; [9]) is reported as 20 to 50 nM. For the same compound, the IC50 (human C5aR(CD88) [3]; functional assay of example 11, values in text, read-out: IC50) was 23 nM, the “inhibitory activity (in words)” value (human C5aR(CD88) [3]) was “without significant loss of activity” and the “inhibitory activity (in words)” value (human C5aR(CD88) [3]; listed as Ac-Phe-[Orn-Pro-cha-Trp-Phe]) was “noteworthy inhibitory activity”. The EC50 (human C5aR(CD88) [4]; agonistic activity, no C5a added, read-out: EC50) was over 1430 nM, the “agonistic activity (in words)” value (human C5aR(CD88) [4]) was “pure antagonists” and the IC50 (C5aR [5]) was 450 nM. For the same compound, the IC50 (C5aR [6]) was 28 nM.

`CC(C)NCC(O)COc1cccc2ccccc12` (stereo not shown) [Propanolol, reference compound] showed a Papp A→B at 120 min, 50 μM ([7]; Caco-2, values in text) of 31.1 ×10⁻⁶ cm/s.

For Me-Phe-Lys-Pro-cha-Trp-arg, the IC50 (human PMNs) is given as 85 nM.

In the case of “(N-Ethyl)Phe-Lys-Ala-Cha-Ala-Leu-N-Methyl(D)ala-Arg-OH”, the IC50 (C5aR [1]; [10]) is given as 11 nM.

In the case of `CC(=O)N[C@@H](Cc1ccccc1)C(=O)N[C@H]1CCCNC(=O)[C@H](Cc2ccccc2)NC(=O)[C@H](Cc2c[nH]c3ccccc23)NC(=O)[C@@H](CC2CCCCC2)NC(=O)[C@@H]2C[C@@H](O)CN2C1=O` [Compound 2, Ac-Phe-[Orn-Hyp-cha-Trp-Phe]] (Ac-F[Orn][Hyp][dCha]WF; lactam 2-C), the “Solubility in 20 mM HEPES pH 7.4 (% of 200 μM)” value [2] is reported as 13 % of 200 μM, the “solubility in aqueous HEPES buffer (pH 7.4)” value [2] is reported as 13% and the IC50 (human C5aR(CD88) [3]; [9]) is reported as 20 to 50 nM. For the same compound, the “inhibitory activity (in words)” value (human C5aR(CD88) [3]) was “noteworthy inhibitory activity”, the Papp A→B at 120 min, 50 μM ([7]; Caco-2, TC-7 cells, 50 μM, apical pH 6.5, basolateral pH 7.4, 120 min at 37° C.) was 14.2 ×10⁻⁶ cm/s and the Papp A→B at 120 min, 50 μM ([7]; Caco-2, values in text) was 14.3 ×10⁻⁶ cm/s. For the same compound, the EC50 (human C5aR(CD88) [4]) was over 1430 nM and the “agonistic activity (in words)” value (human C5aR(CD88) [4]) was “pure antagonists”.

In the case of “(N-Methyl)Phe-Lys-Pro-cha-ψ55 CH2—N(CH2CH2C6H5)}-Arg-OH”, the IC50 (C5aR [1]; [8]) is given as 360 nM.

For “Ac-Phe-Lys-Ala-Cha-Ala-Leu-N-Methyl(D)ala-Arg-OH”, the IC50 (C5aR [1]; [10]) is listed as 12 nM.

For `CC(=O)N[C@@H](Cc1ccccc1)C(=O)N[C@H]1CCCNC(=O)[C@H](CCCNC(=N)N)NC(=O)[C@H](Cc2c[nH]c3ccccc23)NC(=O)[C@@H](C)NC(=O)[C@@H]2CCCN2C1=O` [compound 47], the IC50 (human C5aR(CD88) [3]; [9]) is listed as over 2000 nM and the IC50 (C5aR [5]) is listed as 24000 nM.

With `CC(=O)N[C@@H](Cc1ccccc1)C(=O)N[C@@H](CCCN)C(=O)N1CCC[C@H]1C(=O)N[C@H](CCC(C)C)C(=O)N[C@@H](Cc1csc2ccccc12)C(=O)N[C@@H](Cc1ccccc1)C(N)=O` [Compound 149, Ac-Phe-Orn-Pro-hle-Bta-Phe-NH2] (Ac-F[Orn]P[d(hLeu)][Bta]F-NH2) the IC50 (human C5aR(CD88) [3]; [9]) was 10 to 20 nM, the “inhibitory activity (in words)” value (human C5aR(CD88) [3]) was “noteworthy inhibitory activity” and the “agonistic activity (in words)” value (human C5aR(CD88) [4]) was “pure antagonists”. The “influx of neutrophils / pro-inflammatory cells into the peritoneum” value (BALB/c mice) was “reduction of the influx of pro-inflammatory cells into the peritoneum” and the “C5a-induced neutropenia (percentage of neutrophils over time)” value (Wistar rats) was “reduces the C5a-induced neutropenia remarkable”.

From patent US20080161232A1, “C5a Receptor Antagonist” (JERINI AG, priority 2005, published 2008)
